We go through 13 compounds from US9061030B2, “sGC stimulators” (IRONWOOD PHARMACEUTICALS, INC., priority 2010, dated 2015).

The target in test [1] is T1, soluble guanylate cyclase (sGC) (Homo sapiens, UniProt Q02108+Q02153).
T1 construct: endogenously expressing soluble guanylate cyclase (sGC); endogenous in cells; host or cells: HEK293
T1 sequence (Q02153 1-619): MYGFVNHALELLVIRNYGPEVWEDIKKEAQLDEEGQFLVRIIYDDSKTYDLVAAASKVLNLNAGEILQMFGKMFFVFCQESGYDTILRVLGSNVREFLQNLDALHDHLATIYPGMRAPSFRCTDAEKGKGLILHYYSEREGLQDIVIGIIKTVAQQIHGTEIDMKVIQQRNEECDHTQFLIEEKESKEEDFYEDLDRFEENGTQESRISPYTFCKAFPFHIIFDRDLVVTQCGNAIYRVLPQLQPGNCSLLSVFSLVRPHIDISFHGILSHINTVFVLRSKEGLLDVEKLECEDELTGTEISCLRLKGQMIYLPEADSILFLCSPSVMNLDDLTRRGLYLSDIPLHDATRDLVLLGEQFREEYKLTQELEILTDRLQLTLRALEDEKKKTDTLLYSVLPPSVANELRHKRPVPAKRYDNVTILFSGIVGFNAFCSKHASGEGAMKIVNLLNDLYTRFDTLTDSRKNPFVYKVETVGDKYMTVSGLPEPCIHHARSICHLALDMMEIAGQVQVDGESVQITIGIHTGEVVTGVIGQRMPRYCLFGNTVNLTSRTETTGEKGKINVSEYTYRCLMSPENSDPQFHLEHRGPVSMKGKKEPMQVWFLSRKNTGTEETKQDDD
T1 sequence (Q02108 1-690): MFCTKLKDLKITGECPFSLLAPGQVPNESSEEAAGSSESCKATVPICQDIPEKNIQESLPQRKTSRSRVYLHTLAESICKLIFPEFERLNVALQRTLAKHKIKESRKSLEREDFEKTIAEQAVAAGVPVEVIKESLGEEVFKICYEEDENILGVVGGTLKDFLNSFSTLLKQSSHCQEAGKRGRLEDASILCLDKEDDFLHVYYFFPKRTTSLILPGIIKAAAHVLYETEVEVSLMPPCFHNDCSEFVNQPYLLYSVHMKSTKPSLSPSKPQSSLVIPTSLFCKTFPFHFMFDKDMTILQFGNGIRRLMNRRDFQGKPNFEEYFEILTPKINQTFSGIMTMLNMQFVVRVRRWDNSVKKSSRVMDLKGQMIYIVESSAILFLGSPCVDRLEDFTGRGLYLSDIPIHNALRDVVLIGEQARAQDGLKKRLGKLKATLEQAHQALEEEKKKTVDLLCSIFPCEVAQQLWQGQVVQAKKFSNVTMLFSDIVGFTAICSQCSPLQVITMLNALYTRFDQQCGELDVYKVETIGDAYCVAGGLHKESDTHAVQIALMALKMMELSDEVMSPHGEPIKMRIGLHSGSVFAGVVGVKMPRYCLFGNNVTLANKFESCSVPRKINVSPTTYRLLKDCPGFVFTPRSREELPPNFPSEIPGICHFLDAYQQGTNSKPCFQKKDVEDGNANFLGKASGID
As to the kind of experiment: sGC-HEK-cGMP assay. The format is cell-based. The note with it: HEK293 cells, 10 μM SNP, percentage of sGC activity obtained with positive control BAY 41-2272 (= 100%); for Emax at 10 µM: compound at 10 μM; for Emax at 30 µM: compound at 30 μM. As to the method:
Human embryonic kidney cells (HEK293), endogenously expressing soluble guanylate cyclase (sGC), were used to evaluate the activity of the test compounds. Compounds stimulating the sGC receptor should cause an increase in the intracellular concentration of cGMP. HEK 293 cells were seeded in Dulbecco's Modification of Eagle's Medium supplemented with fetal bovine serum (10% final) and L-glutamine (2 mM final) in a 200 μL volume at a density of 1×10^5 cells/well in a poly-D-lysine coated 96 well flat bottom plate and grown overnight at 37° C. Medium was aspirated and cells were washed with 1× Hank's Buffered Saline Salt Solution (200 μL). Cells were then incubated for 15 minutes at 37° C. with 0.5 mM 3-isobutyl-1-methylxanthine (200 μL). Test article was then added to the assay mixture (2 μL) and incubated in the presence of 10 μM Sodium Nitroprusside (SNP) at 37° C. for 10 minutes. After the 10 minute incubation, the assay mixture was aspirated and 0.1M HCl (200 μL) was added to the cells. The plate was incubated at 4° C. for 30 minutes in the 0.1M HCl to stop the reaction and lysed the cells. The plates were then centrifuged at 1,200 g for 5 minutes at room temperature. Supernatants were collected and transferred to a new flat bottom 96 well plate for analysis. Vehicle controls were carried out using DMSO (1%). A known sGC stimulator, BAY 41-2272, was used as the positive control.
Samples were diluted with an equal volume of 1 M Ammonium Acetate (pH 7) to neutralize samples for better chromatography. A 2×cGMP standard curve was prepared in 0.1 M HCl and then diluted with an equal volume of 1 M Ammonium Acetate, with the following final concentrations in nM: 1024, 512, 256, 128, 64, 32, 16, 8, 4, 2, 1.cGMP concentrations were determined from each sample using the LC/MS conditions (Table 2 below) and calculated standard curve. EC50 values were calculated from concentration-response curves generated with GraphPad Prism Software.
The biological activities of some of the compounds according to Formula IA or Formula IB determined with the sGC-HEK assay are summarized in Table 3 below.

Test [2] addresses T2, Human soluble guanylate cyclase enzyme (hsGC) (Homo sapiens, UniProt Q02108+Q02153).
T2 construct: purchased Enzo Inc. ALX-201-177
T2 sequence (Q02153 1-619): T1 sequence (Q02153 1-619)
T2 sequence (Q02108 1-690): T1 sequence (Q02108 1-690)
Kind of test: Purified human sGC enzyme activity assay (with or without SNP). Type of test: biochemical. The note with it: 30 μM compound; for sGC Enzyme Activity Increase at 30 μM with SNP: 1 μM SNP, specific activity vs DMSO and SNP; for sGC Enzyme Activity Increase at 30 μM without SNP: specific activity vs DMSO control. The method, then:
Human soluble guanylate cyclase enzyme (hsGC) obtained from Enzo Inc. (P/N: ALX-201-177) was used to evaluate the activity of test compounds. The assay reactions contained 0.1 M Tris (pH 8.0), 0.5 mg/mL BSA (pH 8.0), 2 mM DTT, 2 mM MgCl2, 300 μM GTP, 1 mM 3-isobutyl-1-methylxanthine (IBMX) and 5 ng human soluble guanylate cyclase enzyme. Test compounds in DMSO were then added (2 μL, 10 or 30 μM final concentration) and incubated (200 μL, 96-well plate format) at 37° C. for 30 minutes. The controls were carried out using 2 μL DMSO. After the 30 minute incubation, the reaction was stopped with the addition of 200 μL of cold methanol. The plate was then centrifuged at 3,200 rpm for 10 minutes at room temperature. Supernatants (200 μL) were collected and transferred to a new 96 well plate for analysis.
An 8 point cGMP (Sigma-Aldrich P/N: G6129) standard curve was prepared in assay buffer ranging from 0.156-20 μM. Samples for the cGMP standard curve were then diluted with an equal volume of methanol resulting in final cGMP concentrations of 0.078-10 μM.
The cGMP standard curve was generated using GraphPad Prism Software.
Calculations: Specific Activity was determined by the amount of cGMP formed (nmoles) per mg of sGC per min. Enzyme activity “fold-change” was calculated by dividing the Specific Activity for a test compound by the Specific Activity of DMSO control.
The enzymatic activity fold-change of the purified human sGC enzyme determined in the presence of each of the test compounds individually at 10 or 30 μm without the addition of sodium nitroprusside (SNP), a nitric oxide donor, is presented in Table 5.
Enzyme assays were also performed as described above, but in the presence of 1 μM sodium nitroprusside (SNP). Enzymatic activity fold-changes are reported for selected test compounds in the presence of both SNP and the test compound. These were calculated by dividing the specific activity (activity increase) for the test compound dissolved in DMSO and SNP over the specific activity for the mixture of DMSO and SNP.

Each structure is given as a SMILES string.

In test [1], `Fc1ccccc1Cn1nc(-c2cocn2)nc1-c1ccccn1` [Compound I-13, 4-(1-(2-fluorobenzyl)-5-(pyridin-2-yl)-1H-1,2,4-triazol-3-yl)oxazole] showed an Emax at 10 µM of 0 to 5% and a maximal effect (Emax) at 30 µM of 0 to 5%. Further, in test [2], the “sGC Enzyme Activity Increase at 30 μM with SNP” value was “B (B = 1 to <2 fold increase)” and the “sGC Enzyme Activity Increase at 30 μM without SNP” value was “C (C = 2 to <5 fold increase)”.
As to `Fc1ccccc1Cn1nc(-c2cccc(Br)n2)nc1-c1nccs1` [Compound I-19, 2-(3-(6-bromopyridin-2-yl)-1-(2-fluorobenzyl)-1H-1,2,4-triazol-5-yl)thiazole], in test [1], the Emax at 10 µM lay within 10 to 20% and the maximal effect (Emax) at 30 µM fell in the range of 0 to 5%. Also, in test [2], the “sGC Enzyme Activity Increase at 30 μM with SNP” value is given as “C (C = 2 to <5 fold increase)” and the “sGC Enzyme Activity Increase at 30 μM without SNP” value is reported as “B (B = 1 to <2 fold increase)”.
For `Fc1ccccc1Cn1nc(-c2ccccn2)nc1-c1ccccc1` [Compound I-2] the same measures were 5 to 10%, 5 to 10%, “C (C = 2 to <5 fold increase)” and “D (D = 5 to <10 fold increase)”.
For `Fc1ccccc1Cn1nc(-c2cc(Br)ccn2)nc1-c1nccs1` [Compound I-36, 2-(3-(4-bromopyridin-2-yl)-1-(2-fluorobenzyl)-1H-1,2,4-triazol-5-yl)thiazole] the same measures were 0 to 5%, 0 to 5%, “B (B = 1 to <2 fold increase)” and “B (B = 1 to <2 fold increase)”.
The like results for `Fc1ccccc1Cn1nc(-c2cscn2)nc1-c1cnccn1` [Compound I-55] were, in that order, 0 to 5%, 5 to 10%, “C (C = 2 to <5 fold increase)” and “B (B = 1 to <2 fold increase)”.
For the compound `Fc1ccccc1Cn1nc(-c2ccccn2)nc1-n1ccnc1` [Compound I-49, 2-(1-(2-fluorobenzyl)-5-(1H-imidazol-1-yl)-1H-1,2,4-triazol-3-yl)pyridine], in test [1], the Emax at 10 µM was 0 to 5% and the Emax at 30 µM lay in the range of 5 to 10%. Also, in test [2], the “sGC Enzyme Activity Increase at 30 μM with SNP” value is “B (B = 1 to <2 fold increase)” and the “sGC Enzyme Activity Increase at 30 μM without SNP” value was “B (B = 1 to <2 fold increase)”.
In test [1], `Fc1ccc(-c2nc(-c3nccs3)nn2Cc2ccccc2F)nc1` [Compound I-39] displayed an Emax at 10 µM of 5 to 10% and an Emax at 30 µM of 5 to 10%. Moreover, in test [2], the “sGC Enzyme Activity Increase at 30 μM with SNP” value was “C (C = 2 to <5 fold increase)” and the “sGC Enzyme Activity Increase at 30 μM without SNP” value is reported as “B (B = 1 to <2 fold increase)”.
In test [1], `Fc1ccccc1Cn1nc(-c2cc(N3CCOCC3)ccn2)nc1-c1cocn1` [Compound I-68, 4-(2-(1-(2-fluorobenzyl)-5-(oxazol-4-yl)-1H-1,2,4-triazol-3-yl)pyridin-4-yl)morpholine] yielded an Emax at 10 µM of 20 to 40% and an Emax at 30 µM of 40 to 60%. Besides, in test [2], the “sGC Enzyme Activity Increase at 30 μM with SNP” value is on record as “E (E = 10 to <20 fold increase)” and the “sGC Enzyme Activity Increase at 30 μM without SNP” value was “C (C = 2 to <5 fold increase)”.
For `COC(=O)c1nc(-c2ccccn2)nn1Cc1ccccc1F` [Compound I-35, methyl 1-(2-fluorobenzyl)-3-(pyridin-2-yl)-1H-1,2,4-triazole-5-carboxylate] the same measures were 0 to 5%, 0 to 5%, “C (C = 2 to <5 fold increase)” and “B (B = 1 to <2 fold increase)”.
For `Cc1nc(-c2ncccn2)nn1Cc1ccccc1F` [Compound I-28] the same measures were 0 to 5%, 0 to 5%, “B (B = 1 to <2 fold increase)” and “B (B = 1 to <2 fold increase)”.
For `Fc1ccccc1Cn1nc(-c2ncco2)nc1-c1ccccn1` [Compound I-7] the same measures were 0 to 5%, 5 to 10%, “B (B = 1 to <2 fold increase)” and “B (B = 1 to <2 fold increase)”.
For the compound `Fc1ccccc1Cn1nc(-c2cocn2)nc1-c1nccs1` [Compound I-62], in test [1], the Emax at 10 µM is 10 to 20% and the Emax at 30 µM is 5 to 10%. For the same compound, in test [2], the “sGC Enzyme Activity Increase at 30 μM with SNP” value is reported as “C (C = 2 to <5 fold increase)” and the “sGC Enzyme Activity Increase at 30 μM without SNP” value is “A (A = no increase to <1 fold increase)”.
For `Fc1ccccc1Cn1nc(-c2ncccn2)nc1-c1ccon1` [Compound I-59, 3-(1-(2-fluorobenzyl)-3-(pyrimidin-2-yl)-1H-1,2,4-triazol-5-yl)isoxazole] the same measures were 0 to 5%, 0 to 5%, “A (A = no increase to <1 fold increase)” and “A (A = no increase to <1 fold increase)”.
